Key:
[1] = system: human hepatocytes (hES15); experiment: Cytokine ELISA secretion profiling of human hepatocytes after drug treatment
Protocol: Upon completion of the culture, the maturation of hepatocytes was induced by the same manner as described in Example 1 and then the matured hepatocytes were obtained (FIG. 1).
(§1) Particularly, the hepatocytes at 19th day of the differentiation from human stem cells, which were prepared by the method described in Example 1, were distributed in a 6-well plate (90%/well), and then the medium was replaced with 1000 mg/L DMEM-low glucose medium (Dulbecco's Modified Eagle's Medium, Welgene No. 001-11), followed by culture for 2 hours. Then, the stem cell derived hepatocyte culture medium was obtained. To eliminate by-products of the cell culture, centrifugation was performed at 12,000×g, for 20 minutes at 4° C. Supernatant was obtained. The capture antibodies, 2.5 μg/ml anti-IL-1β antibody, 2 μg/ml anti-IL-6 antibody, 2.5 μg/ml anti-IL-10 antibody, 2 μg/ml anti-IL-12 antibody, 1 μg/ml anti-TNF-α antibody, 2 μg/ml anti-IFN-α antibody, 1 μg/ml anti-IFN-β antibody, and 2 μg/ml anti-TGF-β antibody, were cultured at 37° C. for 2 hours, with which 96-well ELISA plate was coated. The plate was washed, followed by blocking with 0.2% I-block (Foster city, CA) at 37° C. for 2 hours. Upon completion of the blocking, the capture antibodies were washed and cultured with a standard material (2 fold serial diluted in protein free flexible plate from 10 ng/ml to 4.88 pg/ml) and the supernatant in ELISA plate (Greiner, Kremsmunster, Austria) at 37° C. for 2 hours. Upon completion of the culture, the biotinylated detection antibodies (anti-IL-1β antibody: 2 μg/ml, anti-IL-6 antibody: 1 μg/ml, anti-IL-10 antibody: 1 μg/ml, anti-IL-12 antibody: 1 μg/ml, anti-TNF-α antibody: 1 μg/ml, anti-IFN-α antibody: 4 μg/ml, anti-IFN-β antibody: 2 μg/ml, anti-TGF-β antibody: 1 μg/ml, final concentration) were added thereto, followed by further culture at 37° C. for 2 hours. Then, alkaline phosphatase conjugated streptavidin was added thereto, followed by further culture at room temperature for 30 minutes. 5 mM nitrophenyl phosphate substrate was added thereto, and OD405 was measured by using ELISA reader.
Particularly, the hepatocytes at 19th day of the differentiation from human stem cells, which were prepared by the method described in Example 1, were distributed in a 6-well plate (90%/well), and then the medium was replaced with 1000 mg/L DMEM-low glucose medium (Dulbecco's Modified Eagle's Medium, Welgene No. 001-11), followed by culture for 2 hours. […] Then, culture fluids of the hepatocytes differentiated from stem cells and the human hepatocytes were obtained to extract immunotoxic materials therefrom. To eliminate by-products of the cultured cells, centrifugation was performed at 12,000×g for 20 minutes at 4° C., and then supernatant was obtained. […]

[2] = system: hepatocytes differentiated from human embryonic stem cells (hESC4); experiment: Cytokine ELISA secretion profiling of stem cell derived hepatocytes after drug treatment; conditions: ELISA of supernatant
Protocol: as §1
(§2) Particularly, the hepatocytes at 19th day of the differentiation from human stem cells, which were prepared by the method described in Example 1, were distributed in a 6-well plate (90%/well), and then the medium was replaced with 1000 mg/L DMEM-low glucose medium (Dulbecco's Modified Eagle's Medium, Welgene No. 001-11), followed by culture for 2 hours.

[3] = system: hepatocytes differentiated from human embryonic stem cells (hESC4)
Protocol: as §1, §2

[4] = CCl4 0, 5, 10, 20 mM for 24 hours, ELISA of supernatant
[5] = CCl4 0, 5, 10, 20 mM for 24 hours

Structure (SMILES)	IFN-α detected [1, 4]	IL-10 detected [1, 4]	cytokine secretion compared with hepatocytes differentiated from stem cells ([1]; considering the smaller number of human hepatocytes, CCl4: cytokines, acetaminophen: IL-6 and IFN-β)	IL-6 detected ([1]; treatment for 24 hours (CCl4 0, 5, 10, 20 mM; acetaminophen 0, 10, 20 mM), ELISA of supernatant)	IFN-α detected [2, 5]	IL-10 detected [2, 5]	IL-6 detected ([2]; treatment for 24 hours (CCl4 0, 5, 10, 20 mM; acetaminophen 0, 10, 20 mM))	ethanol induced toxic reaction [3]
ClC(Cl)(Cl)Cl [CCl4]	also detected in the cells	also detected in the cells	secreted more in human hepatocytes	also detected in the cells	detected in the cells CCl4 dose dependently	detected in the cells CCl4 dose dependently	detected in the cells CCl4 dose dependently	
CCO [ethanol]								did not show ethanol induced toxic reaction
